Measured values reported in patent US6177438A, “Morphinan derivatives and pharmaceutical use thereof” (priority 1993, dated 2001).
Structures can show the parent of a compound that is named as a salt. Where two headings read alike, the source gives them in different places.

What was measured:
[1] = tested on: extracted mouse vas deferens preparation; assay: Opioid activity test using an extracted mouse vas deferens preparation (suppression of electrically induced contractions); design: species or system male ddy mouse; settings: electrical stimulus 0.1 Hz, 37° C.
Summary of the method: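 Male ddY mouse vas deferens in Krebs-Henseleit at 37° C, 5% CO2/95% O2, field-stimulated at 0.1 Hz, 5.0 ms; isometric contractions recorded. After adding naloxone, NTI or norBNI, test compound was added cumulatively after ~20 min; Ke derived from the difference in agonist efficacies.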

κ receptor = target: T1, κ receptor (Mus musculus, UniProt P33534); assay: Opioid activity test using an extracted mouse vas deferens preparation, Ke with norBNI; design: species or system male ddy mouse; settings: for receptor selectivity of agonist (κ): in words; for Ke, norBNI: κ, norBNI added
T1 construct: from tissue; host or cells: mouse (male ddy) vas deferens

[2] = tested on: acetic acid-induced writhing in ddy mice; assay: animal or person; type: in vivo, 5 week old ddy mice; settings: s.c. 15 minutes before acetic acid
Description: 5 week old ddy mice were used in this test. After intraperitoneal administration of 0.1 ml of 0.6% aqueous acetic acid per 10 g of body weight, the number of writhing reactions that occurred in 10 minutes starting 10 minutes after administration was evaluated for the indicator. The test drug was administered subcutaneously into the backs of the animals 15 minutes before administration of acetic acid.

[3] = tested on: cultured nerve cells (cerebral cortex); settings: 10 mM glutamic acid, 24 hours
[4] = Diuretic action (urine output for 5 hours after physiological saline loading in rats); type: in vivo, male Wistar rats; settings: for ED (200% urine output) / ED (500% urine output): Rattus norvegicus, sc, 5 hours after saline 20 ml/kg p.o.; for ED (200% urine output): dose giving urine output of 200 (non-dosed group = 100); for ED (500% urine output): dose giving urine output of 500 (non-dosed group = 100)
Summary of the method: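 Doses reported as ED200/ED500, i.e. those raising 5 h urine output to 200 or 500 versus undosed rats set at 100. Subcutaneous dosing preceded an oral 20 ml/kg saline load by 30 min; male Wistar rats, 7-8 weeks, deprived of water 1 h beforehand.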

μ receptor = target: T2, μ receptor (Mus musculus, UniProt P42866); assay: Opioid activity test using an extracted mouse vas deferens preparation, Ke with naloxone; design: species or system male ddy mouse; settings: naloxone added
T2 construct: naloxone as mu antagonist (printed 'agonist')

[5] = tested on: cultured nerve cells (cerebral cortex); assay: cells; settings: Rattus norvegicus, Cerebral cortex neuron, 24 h, read-out: ED50 (protection against glutamic acid toxicity)
δ receptor = target: T3, δ receptor (Mus musculus, UniProt P32300); design: species or system male ddy mouse; settings: for Ke, NTI: δ, NTI added
T3 construct: The vas deferens extracted from the animal was suspended in a Magnus tube; from tissue; host or cells: mouse (male ddy) vas deferens

[6] = Mus musculus, sc, read-out: ED50

T1 sequence (P33534 whole entry): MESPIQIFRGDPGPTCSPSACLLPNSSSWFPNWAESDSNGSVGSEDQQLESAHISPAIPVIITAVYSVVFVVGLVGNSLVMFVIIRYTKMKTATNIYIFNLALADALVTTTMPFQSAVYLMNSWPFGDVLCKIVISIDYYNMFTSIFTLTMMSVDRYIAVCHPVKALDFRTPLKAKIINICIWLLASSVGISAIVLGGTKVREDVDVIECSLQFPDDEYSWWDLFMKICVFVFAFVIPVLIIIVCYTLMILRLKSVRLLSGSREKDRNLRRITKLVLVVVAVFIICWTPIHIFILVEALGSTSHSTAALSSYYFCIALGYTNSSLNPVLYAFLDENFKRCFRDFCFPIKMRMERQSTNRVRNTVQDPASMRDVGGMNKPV
T2 sequence (P42866 whole entry): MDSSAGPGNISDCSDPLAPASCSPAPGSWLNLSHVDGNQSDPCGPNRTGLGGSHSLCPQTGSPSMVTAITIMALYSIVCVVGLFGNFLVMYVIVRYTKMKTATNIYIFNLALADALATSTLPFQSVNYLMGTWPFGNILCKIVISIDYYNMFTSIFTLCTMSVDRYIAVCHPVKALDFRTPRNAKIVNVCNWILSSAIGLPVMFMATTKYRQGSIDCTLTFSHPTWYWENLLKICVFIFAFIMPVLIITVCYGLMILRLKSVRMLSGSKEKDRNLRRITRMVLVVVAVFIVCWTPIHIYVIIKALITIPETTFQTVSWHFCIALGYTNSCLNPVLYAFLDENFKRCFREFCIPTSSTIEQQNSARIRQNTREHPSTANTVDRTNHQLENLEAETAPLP
T3 sequence (P32300 whole entry): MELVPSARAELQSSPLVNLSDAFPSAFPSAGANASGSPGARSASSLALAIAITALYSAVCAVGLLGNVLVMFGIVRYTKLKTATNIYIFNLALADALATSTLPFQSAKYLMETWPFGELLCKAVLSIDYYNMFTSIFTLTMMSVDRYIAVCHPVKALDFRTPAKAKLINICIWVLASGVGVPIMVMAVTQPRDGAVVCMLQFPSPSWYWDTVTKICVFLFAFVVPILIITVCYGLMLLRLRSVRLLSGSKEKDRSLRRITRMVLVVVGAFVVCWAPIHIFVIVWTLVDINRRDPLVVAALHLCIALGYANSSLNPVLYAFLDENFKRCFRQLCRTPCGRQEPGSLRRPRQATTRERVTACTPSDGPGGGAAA

| SMILES | IC50 [1] [nM] | receptor selectivity of agonist (κ) (κ receptor) | Ke, norBNI (κ receptor) [nM] | ED50 [2, 6] [mg/kg] | Protective action against cytotoxicity caused by glutamic acid (in words) [3] | ED (200% urine output) [4] [mg/kg] | ED (500% urine output) [4] [mg/kg] | Ke, Naloxone (μ receptor) [nM] | EC50 [5] [nM] | Ke, NTI (δ receptor; mouse vas deferens) [nM] | receptor selectivity of agonist (δ) (δ receptor; mouse vas deferens, in words) | Diuretic action (in words) ([4]; s.c., from ED200 values) | ED50 [2] [mg/kg] | receptor selectivity of agonist (δ) (δ receptor) |
| --- | --- | --- | --- | --- | --- | --- | --- | --- | --- | --- | --- | --- | --- | --- |
| CCC/C=C/C(=O)N(C)[C@@H]1CC[C@@]2(O)[C@H]3Cc4ccc(O)c5c4[C@@]2(CCN3CC2CC2)[C@H]1O5 [Compound 100, 17-cyclopropylmethyl-3,14β-dihydroxy-4,5α-epoxy-6β-(N-methyl-trans-2-hexenamido)morphinan.cndot.tartrate] | 0.647 | selective agonists for κ receptors | 0.0717 | 0.024 | clearly demonstrated action that protects nerve cells from cytotoxicity caused by glutamic acid | 0.0159 | 0.811 | 1797 | 1740 | – | – | – | – | – |
| CN(C(=O)CCCc1ccccc1)[C@H]1CC[C@@]2(O)[C@H]3Cc4ccc(O)c5c4[C@@]2(CCN3CC2CC2)[C@H]1O5 [Compound 35, 17-cyclopropylmethyl-3,14β-dihydroxy-4,5α-epoxy-6α-(N-methyl-4-phenylbutyramido)morphinan.cndot.hydrochloride] | – | – | – | 0.026 | clearly demonstrated action that protects nerve cells from cytotoxicity caused by glutamic acid | 0.0245 | 5.19 | – | 640 | – | – | – | – | – |
| CN(C(=O)/C=C/C1CCCCC1)[C@@H]1CC[C@@]2(O)[C@H]3Cc4ccc(O)c5c4[C@@]2(CCN3CC2CC2)[C@H]1O5 [Compound 68, 17-cyclopropylmethyl-3,14β-dihydroxy-4,5α-epoxy-6β-(N-methyl-3-cyclohexylacrylamido)morphinan.cndot.tartrate] | 0.457 | selective agonists for κ receptors | 1.08 | 0.0042 | clearly demonstrated action that protects nerve cells from cytotoxicity caused by glutamic acid | 0.0016 | 0.0232 | 5710 | 1410 | 143 | – | – | – | – |
| CN(C(=O)/C=C/c1ccccc1)[C@H]1CC[C@@]2(O)[C@H]3Cc4ccc(O)c5c4[C@@]2(CCN3CC2CC2)[C@H]1O5 [Compound 24, 17-cyclopropylmethyl-3,14β-dihydroxy-4,5α-epoxy-6α-(N-methylcinnamamido)morphinan.cndot.hydrochloride] | 0.121 | – | 4.90 | 0.00575 | clearly demonstrated action that protects nerve cells from cytotoxicity caused by glutamic acid | 0.00069 | 0.0063 | 16.5 | 1910 | 0.426 | selective agonists for δ receptors | extremely strong diuretic action | – | – |
| CN(C(=O)C#Cc1ccccc1)[C@@H]1CC[C@@]2(O)[C@H]3Cc4ccc(O)c5c4[C@@]2(CCN3CC2CC2)[C@H]1O5 [Compound 101, 17-cyclopropylmethyl-3,14β-dihydroxy-4,5α-epoxy-6β-(N-methyl-3-phenylpropiolamido)morphinan.cndot.hydrochloride] | 0.269 | selective agonists for κ receptors | 0.0425 | 0.0066 | clearly demonstrated action that protects nerve cells from cytotoxicity caused by glutamic acid | 0.0089 | 0.226 | 25.4 | 12200 | 31.6 | – | – | – | – |
| CN(C(=O)CCc1ccccc1)[C@@H]1CC[C@@]2(O)[C@H]3Cc4ccc(O)c5c4[C@@]2(CCN3CC2CC2)[C@H]1O5 [Compound 57, 17-cyclopropylmethyl-3,14β-dihydroxy-4,5α-epoxy-6β-(N-methyl-3-phenylpropionamido)morphinan.cndot.hydrochloride] | 0.0254 | selective agonists for κ receptors | 0.0124 | 0.04 | clearly demonstrated action that protects nerve cells from cytotoxicity caused by glutamic acid | 0.0424 | 1.26 | – | 15300 | 747 | – | – | – | – |
| CN(C(=O)Cc1ccc(Cl)c(Cl)c1)[C@@H]1CC[C@@]2(O)[C@H]3Cc4ccc(O)c5c4[C@@]2(CCN3CC2CC2)[C@H]1O5 [Compound 53, 17-cyclopropylmethyl-4,5α-epoxy-3,14β-dihydroxy-6β-(N-methyl-3,4-dichlorophenylacetoamido)morphinan.cndot.hydrochloride] | 10.3 | selective agonists for κ receptors | 0.21 | 0.46 | clearly demonstrated action that protects nerve cells from cytotoxicity caused by glutamic acid | 0.135 | 0.658 | – | 2510 | 1676 | – | – | – | – |
| CN(C(=O)/C=C/c1ccccc1)[C@@H]1CC[C@@]2(O)[C@H]3Cc4ccc(O)c5c4[C@@]2(CCN3CC2CC2)[C@H]1O5 [Compound 99, 17-cyclopropylmethyl-3,14β-dihydroxy-4,5α-epoxy-6β-(N-methylcinnararido)morphinan.cndot.hydrochloride] | 0.674 | selective agonists for κ receptors | 0.652 | – | clearly demonstrated action that protects nerve cells from cytotoxicity caused by glutamic acid | 0.0011 | 0.0309 | 94.5 | 15400 | – | – | – | 0.0018 | – |
| CN(C(=O)OCc1ccccc1)[C@@H]1CC[C@@]2(O)[C@H]3Cc4ccc(O)c5c4[C@@]2(CCN3CC2CC2)[C@H]1O5 [Compound 56, 17-cyclopropylmethyl-3,14β-dihydroxy-4,5α-epoxy-6β-(N-methylbenzyloxycarbamido)morphinan.cndot.hydrochloride] | – | – | – | 0.00802 | clearly demonstrated action that protects nerve cells from cytotoxicity caused by glutamic acid | 0.0028 | 0.0518 | – | 5230 | – | – | – | – | – |
| CN(C(=O)Cc1cccc(C(F)(F)F)c1)[C@H]1CC[C@@]2(O)[C@H]3Cc4ccc(O)c5c4[C@@]2(CCN3CC2CC2)[C@H]1O5 [Compound 108, 17-cyclopropylmethyl-3,14β-dihydroxy-4,5α-epoxy-6α-(N-methyl-3-trifluoromethylphenylacetamido)morphinan.cndot.hydrochloride] | – | – | – | 0.0064 | clearly demonstrated action that protects nerve cells from cytotoxicity caused by glutamic acid | 0.021 | 5.11 | – | 250 | – | – | – | – | – |
| CN(C(=O)C#Cc1ccccc1)[C@H]1CC[C@@]2(O)[C@H]3Cc4ccc(O)c5c4[C@@]2(CCN3CC2CC2)[C@H]1O5 [Compound 84, 17-cyclopropylmethyl-3,14β-dihydroxy-4,5α-epoxy-6α-(N-methyl-3-phenylpropiolamido)morphinan.cndot.hydrochloride] | 2.07 | – | 5.69 | 0.0058 | clearly demonstrated action that protects nerve cells from cytotoxicity caused by glutamic acid | 0.0028 | 0.0469 | 35.4 | 2700 | 0.309 | – | – | – | selective agonists for δ receptors |
